Test results published in the supplement of paper PMC10307832.

Legend:
Experiment in all cases: relative viability (nuclei count vs DMSO), 5 days (fraction); higher = more cells survive
AZ505 + Palbociclib = compound: C1CCC(CC1)N(CCNCCC2=C3C(=C(C=C2)O)NC(=O)CO3)C(=O)CCNCCC4=CC(=C(C=C4)Cl)Cl [AZ505] + CC(=O)c1c(C)c2cnc(Nc3ccc(N4CCNCC4)cn3)nc2n(C2CCCC2)c1=O [Palbociclib] (partner 0.5 µM)
How it was run: (§1)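 Each reported value is a median over duplicate plates. It expresses relative viability: treated-well nuclei count divided by vehicle-well nuclei count. Lung cancer cell lines in 1536-well plates were dosed by pin tool a day after seeding, alone with one drug or with a fixed anchor-drug dose plus five library-drug doses (not always all listed) in √10 steps, and nuclei were counted after 5 days.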

AZ505 + Pemetrexed = compound: C1CCC(CC1)N(CCNCCC2=C3C(=C(C=C2)O)NC(=O)CO3)C(=O)CCNCCC4=CC(=C(C=C4)Cl)Cl [AZ505] + Nc1nc2[nH]cc(CCc3ccc(C(=O)N[C@@H](CCC(=O)O)C(=O)O)cc3)c2c(=O)[nH]1 [Pemetrexed] (partner 0.2 µM)
How it was run: as §1

Dactolisib + Decitabine = compound: Cn1c(=O)n(-c2ccc(C(C)(C)C#N)cc2)c2c3cc(-c4cnc5ccccc5c4)ccc3ncc21 [Dactolisib] + Nc1ncn([C@H]2C[C@H](O)[C@@H](CO)O2)c(=O)n1 [Decitabine] (partner 2 µM)
How it was run: as §1

Dactolisib + Alpelisib = compound: Cn1c(=O)n(-c2ccc(C(C)(C)C#N)cc2)c2c3cc(-c4cnc5ccccc5c4)ccc3ncc21 [Dactolisib] + Cc1nc(NC(=O)N2CCC[C@H]2C(N)=O)sc1-c1ccnc(C(C)(C)C(F)(F)F)c1 [Alpelisib] (partner 2 µM)
How it was run: as §1

Row | Cell Line | relative viability (AZ505 + Palbociclib; first compound 0.08 µM) | relative viability (AZ505 + Palbociclib; first compound 0.253 µM) | relative viability (AZ505 + Palbociclib; first compound 0.8 µM) | relative viability (AZ505 + Palbociclib; first compound 2.53 µM) | relative viability (AZ505 + Palbociclib; first compound 8 µM) | relative viability (AZ505 + Pemetrexed; first compound 0.08 µM) | relative viability (AZ505 + Pemetrexed; first compound 0.253 µM) | relative viability (AZ505 + Pemetrexed; first compound 0.8 µM) | relative viability (AZ505 + Pemetrexed; first compound 2.53 µM) | relative viability (AZ505 + Pemetrexed; first compound 8 µM) | relative viability (Dactolisib + Decitabine; first compound 0.002 µM) | relative viability (Dactolisib + Decitabine; first compound 0.006325 µM) | relative viability (Dactolisib + Decitabine; first compound 0.02 µM) | relative viability (Dactolisib + Decitabine; first compound 0.06325 µM) | relative viability (Dactolisib + Decitabine; first compound 0.2 µM) | relative viability (Dactolisib + Alpelisib; first compound 0.002 µM) | relative viability (Dactolisib + Alpelisib; first compound 0.006325 µM) | relative viability (Dactolisib + Alpelisib; first compound 0.02 µM) | relative viability (Dactolisib + Alpelisib; first compound 0.06325 µM) | relative viability (Dactolisib + Alpelisib; first compound 0.2 µM)
1 | NCI-H1755 | 0.42 | 0.46 | 0.434 | 0.441 | 0.442 | 0.474 | 0.452 | 0.402 | 0.44 | 0.461 | 0.87 | 0.768 | 0.766 | 0.673 | 0.536 | 0.944 | 0.898 | 0.872 | 0.655 | 0.372
2 | HCC-78 | 0.452 | 0.409 | 0.4 | 0.435 | 0.434 | – | – | 0.916 | 0.904 | 0.918 | 0.834 | 0.854 | 0.619 | 0.612 | 0.455 | 0.358 | 0.33 | 0.282 | 0.247 | 0.198
3 | IA-LM | – | – | – | – | – | – | – | – | – | – | – | – | – | – | – | 0.636 | 0.663 | 0.793 | 0.179 | 0.186
4 | NCI-H322M | 0.53 | – | 0.473 | 0.489 | 0.503 | 0.604 | – | 0.61 | 0.647 | 0.648 | 0.759 | 0.712 | 0.631 | 0.661 | 0.608 | 0.899 | 0.839 | 0.8 | 0.609 | 0.511
5 | NCI-H3122 | 0.212 | 0.228 | 0.18 | 0.19 | 0.197 | 0.196 | 0.197 | 0.196 | 0.201 | 0.199 | 0.376 | 0.369 | 0.415 | 0.284 | 0.304 | 0.792 | 0.729 | 0.652 | 0.486 | 0.36
6 | SK-LU-1 | 0.319 | 0.343 | 0.292 | 0.322 | 0.336 | 0.671 | 0.72 | 0.684 | 0.799 | 0.757 | 0.523 | 0.72 | 0.6 | 0.44 | 0.388 | 1.03 | 0.94 | 0.779 | 0.363 | 0.276
7 | COR-L23 | 0.259 | 0.253 | 0.264 | 0.284 | 0.281 | 0.185 | 0.204 | 0.201 | 0.185 | 0.186 | 0.605 | 0.445 | 0.32 | 0.23 | 0.182 | 0.8 | 0.646 | 0.419 | 0.199 | 0.149
8 | NCI-H2087 | 0.225 | 0.27 | 0.312 | 0.22 | 0.197 | 0.616 | 0.614 | 0.691 | 0.741 | 0.696 | 0.314 | 0.265 | 0.249 | 0.205 | 0.133 | 1.17 | 0.994 | 0.805 | 0.574 | 0.668
9 | LC-2-ad | 0.458 | 0.479 | 0.45 | 0.499 | 0.511 | 0.279 | 0.278 | 0.294 | 0.306 | 0.258 | 0.888 | 0.871 | 0.727 | 0.784 | 0.73 | 0.916 | – | 0.817 | 0.64 | 0.533
10 | ChaGo-K-1 | 0.823 | 0.999 | 1 | 0.92 | 0.91 | 0.26 | 0.268 | 0.28 | 0.252 | 0.258 | 0.558 | 0.541 | 0.51 | 0.527 | 0.501 | – | – | – | – | –
11 | NCI-H2342 | 0.472 | 0.509 | 0.575 | 0.549 | 0.505 | 0.711 | 0.737 | 0.836 | 0.776 | 0.853 | 0.726 | 0.689 | 0.677 | 0.58 | 0.501 | – | – | – | – | –
12 | NCI-H1299 | – | – | – | – | – | – | – | – | – | – | – | – | – | – | – | 1.07 | 1.08 | 1.1 | 0.829 | 0.905
13 | NCI-H1650 | 0.34 | 0.412 | 0.278 | 0.35 | 0.317 | 0.352 | 0.396 | 0.351 | 0.402 | 0.446 | 0.591 | 0.367 | 0.37 | 0.294 | 0.315 | – | – | – | – | –
14 | SW 900 | 0.542 | 0.505 | 0.471 | 0.509 | 0.542 | 0.495 | 0.516 | 0.494 | 0.498 | 0.511 | 0.546 | 0.443 | 0.405 | 0.409 | 0.425 | – | – | – | – | –
15 | NCI-H596 | – | – | – | – | – | 0.463 | – | 0.469 | 0.564 | 0.483 | 1 | 0.965 | 0.814 | 0.718 | 0.523 | 0.461 | 0.474 | 0.386 | 0.322 | 0.259
16 | NCI-H727 | 0.598 | 0.687 | 0.625 | 0.552 | 0.674 | – | – | – | – | – | – | 0.986 | 1.01 | 0.465 | 0.496 | 0.601 | 0.525 | 0.4 | 0.291 | 0.304
17 | NCI-H1648 | – | 0.264 | 0.305 | 0.284 | 0.27 | – | 0.743 | 0.679 | 0.79 | 0.953 | 0.478 | 0.476 | 0.595 | 0.452 | 0.343 | – | – | – | – | –
18 | NCI-H522 | 0.91 | 0.946 | 0.891 | 1.04 | 1.16 | 1 | 1.04 | 1.03 | 1.22 | 0.808 | 0.797 | 0.723 | 0.751 | 0.62 | 0.533 | – | – | – | – | –
19 | A549 | – | – | – | – | – | – | – | – | – | – | 0.34 | 0.292 | 0.248 | 0.204 | 0.12 | 0.966 | 0.715 | 0.614 | 0.146 | 0.083
20 | NCI-H1563 | – | – | – | – | – | 0.703 | 0.782 | 0.875 | 0.771 | 0.769 | – | – | – | – | – | 0.851 | 0.86 | 0.706 | 0.605 | 0.588
21 | ABC-1 | 0.469 | – | 0.686 | 0.661 | 0.517 | – | – | – | – | – | 1.22 | 1.02 | 1.13 | 0.999 | 0.827 | 1.2 | 1.01 | 0.816 | 0.571 | 0.431
